Laboratory results published in PubChem BioAssay AID463199 (Broad Institute, 2010).
The source made the active and inactive calls.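 The calls were made as follows: active = AC50, the dose giving half-maximal effect, exceeds a fixed cutoff for a compound that rescues yeast growth under heat; inactive = the rest, inconclusive results apart.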

Test system: S. cerevisiae Burl-1 ts mutant growth, BacTiter-Glo, 38.5C 24 h
Assay: restored growth of temperature-sensitive Burl-1 yeast – whole organism, S. cerevisiae, Burl-1 ts mutant, luminescence, counter-screen for SUMOylation pathway inhibitor project, dose response (AID 463199)

SMILES: Cc1cccc(Cn2c(C(=O)OC(C)C)cc3c2ccn3C)c1
- AC50: > 42 µM (inactive)

SMILES: O=C(COc1cnc2ccccc2n1)NCCC1=CCCCC1
- AC50: > 42 µM (inactive)

SMILES: Cc1cc(C(=O)COc2cccc3cccnc23)c(C)n1C
- AC50: > 42 µM (inactive)

SMILES: CN(Cc1ccc(C(C)(C)C)cc1)C(=O)c1ccc2c(=O)n3c(nc2c1)CCC3
- AC50: > 42 µM (inactive)

SMILES: Cc1cc(C)cc(NC(=O)C2CCCN(S(=O)(=O)c3ccc4[nH]c(=O)ccc4c3)C2)c1 (configuration not stated)
- AC50: > 42 µM (inactive)

SMILES: O=C(O)c1ccc(Cl)c(NCc2cccs2)c1
- AC50: > 42 µM (inactive)

SMILES: CCOP(=O)(OCC)C(NC(=O)c1cccc(C)c1)C(Cl)(Cl)Cl (configuration not stated)
- AC50: > 42 µM (inactive)

SMILES: Cc1cc2nc(CCl)cc(=O)n2[nH]1
- AC50: > 42 µM (inactive)

SMILES: CC(C)N(C(=S)Nc1cccc(S(=O)(=O)N(C)C)c1)c1ccccc1
- AC50: > 42 µM (inactive)

SMILES: CC1=Nc2ccccc2/C1=C\c1nc(-c2ccccc2)oc1O
- AC50: > 42 µM (inactive)

SMILES: CCOC(=O)c1c(C)[nH]c(O)c1C=Nc1ccccc1
- AC50: > 42 µM (inactive)

SMILES: O=C1c2ccccc2C(=O)N1CCSc1ccccc1
- AC50: > 42 µM (inactive)

SMILES: Cc1cc(C)cc(OC(=O)CS(=O)c2ccc(C(F)(F)F)cc2[N+](=O)[O-])c1 (configuration not stated)
- AC50: > 42 µM (inactive)

SMILES: Cc1ccc(-c2nn(-c3ccccc3)cc2C(=O)N2CCN(c3ccccn3)CC2)cc1
- AC50: > 42 µM (inactive)

SMILES: CCN1C(=O)N(C)[C@@H](c2ccccc2)C(C(=O)OC)=C1C
- AC50: > 42 µM (inactive)

SMILES: O=C(CCCCCn1c(=O)[nH]c2ccsc2c1=O)NCc1ccc(F)cc1
- AC50: > 42 µM (inactive)

SMILES: C/C(=N\NC(=S)Nc1ccccc1)C1Cc2ccccc2C(=O)O1 (configuration not stated)
- AC50: > 42 µM (inactive)

SMILES: COc1cc(CNCCN2CCOCC2)ccc1OCc1ccccc1Cl
- AC50: > 42 µM (inactive)

SMILES: COc1cc(CN2CCNC(=O)C2CC(=O)NCCc2ncccc2C)cc(OC)c1 (configuration not stated)
- AC50: > 42 µM (inactive)

SMILES: Cc1ccccc1-c1nc2ccc(Cl)cc2c(=O)n1O
- AC50: > 42 µM (inactive)

SMILES: CCOc1ccccc1N(CC(=O)Nc1ccccc1C(=O)N1CCCC1)S(C)(=O)=O
- AC50: > 42 µM (inactive)

SMILES: CCN(CC(=O)NCc1ccc(Cl)cc1)C(=O)/C=C/c1ccc(C#N)cc1
- AC50: > 42 µM (inactive)

SMILES: Cc1ccc(C)c(-n2nnnc2SCC(=O)Nc2c(C)n(C)n(-c3ccccc3)c2=O)c1
- AC50: > 42 µM (inactive)

SMILES: O=C1C2CC=C(Cl)CC2C(=O)N1c1ncn[nH]1 (configuration not stated)
- AC50: > 42 µM (inactive)

SMILES: Cc1cc(NC(=O)CSc2ncn(-c3ccccc3)n2)no1
- AC50: > 42 µM (inactive)

SMILES: O=C(CSc1nnnn1C1CC2CCC1C2)Nc1ccnc2ccccc12 (configuration not stated)
- AC50: > 42 µM (inactive)

SMILES: O=C(CCCC(=O)N(CC(=O)NC1CCCC1)c1cccc(F)c1)Nc1ccccn1
- AC50: > 42 µM (inactive)

SMILES: N#Cc1ccc2[nH]c(CO)c(-c3ccccc3)c2c1
- AC50: > 42 µM (inactive)

SMILES: CCCn1c(=O)c2ccccc2n2c(SCC(=O)N3CCc4ccccc4C3)nnc12
- AC50: > 42 µM (inactive)

SMILES: O=C(COC(=O)c1cccc(Br)c1)Nc1ccc2[nH]c(=O)[nH]c2c1
- AC50: > 42 µM (inactive)

SMILES: O=S(=O)(Cc1ccccc1)N1CCN(c2ccccc2)CC1
- AC50: > 42 µM (inactive)

SMILES: O=C(NNc1ccccc1)C(CCO)C(=O)NNc1ccccc1
- AC50: > 42 µM (inactive)

SMILES: CCn1cc(CCCC(=O)NCc2ccccc2OC)c2ccccc21
- AC50: > 42 µM (inactive)

SMILES: Cc1nn(Cc2ccc(C(=O)Nc3ccccc3C(F)(F)F)o2)c(C)c1Br
- AC50: > 42 µM (inactive)

SMILES: O=C(OC1CCOC1=O)c1cccc(S(=O)(=O)Nc2ccc(F)cc2)c1 (configuration not stated)
- AC50: > 42 µM (inactive)

SMILES: CCN(CC)C(=O)Cn1c(=O)n(CCCC(=O)NCc2ccccc2)c(=O)c2sccc21
- AC50: > 42 µM (inactive)

SMILES: CCOc1ccccc1N(C(=O)c1snc(C(N)=O)c1N)C(CC)C(=O)NC1CCCC1 (configuration not stated)
- AC50: > 42 µM (inactive)

SMILES: COc1ccccc1NC(=O)N1CCN(C(=O)Nc2ccccc2OC)CC1
- AC50: > 42 µM (inactive)

SMILES: Cc1ccc(SCCNC(=O)CN2C(=O)c3ccccc3S2(=O)=O)cc1
- AC50: > 42 µM (inactive)

SMILES: COc1cc2cc(C)c3nnc(SCC(=O)Nc4cc(C)on4)n3c2cc1OC
- AC50: > 42 µM (inactive)

SMILES: COc1cc(NC(=O)c2cc(Cl)ccc2Cl)ccc1-c1cc2ccccc2oc1=O
- AC50: > 42 µM (inactive)

SMILES: O=[N+]([O-])c1nn(-c2ccc(Cl)cc2)n(O)c1=NCc1ccccc1Cl
- AC50: > 42 µM (inactive)

SMILES: COc1ccc2nc(SCC(=O)N(C)CC(=O)Nc3ccc(F)cc3)[nH]c2c1
- AC50: > 42 µM (inactive)

SMILES: Cc1ccc(C)n1-c1ccc(N(C)C)cc1
- AC50: > 42 µM (inactive)

SMILES: Cc1cccc(N/N=C/c2c(O)[nH]c(=S)[nH]c2=O)c1
- AC50: > 42 µM (inactive)

SMILES: CCN(CC)c1nc2c(c(=O)[nH]c(=O)n2C)n1CCOc1ccccc1
- AC50: > 42 µM (inactive)

SMILES: C=C1C2C[C@@]3([C@@H]1O)[C@@H](C[C@@H]2O)[C@@]12C4[C@@H]3C[C@@H]1[C@@](C)(CC[C@@H]2O)CN4CC
- AC50: > 42 µM (inactive)

SMILES: COc1ccc(CN2CCCCCC2)cc1
- AC50: > 42 µM (inactive)

SMILES: O=C(COc1ncnc2ccccc12)Nc1ccc(Cl)c(S(=O)(=O)N2CCOCC2)c1
- AC50: > 42 µM (inactive)

SMILES: COc1ccc(NC(=O)c2ccccc2NC(=O)NC2CCCCC2)cc1
- AC50: > 42 µM (inactive)

SMILES: COc1ccc(CN(CC(=O)NCC2CCCO2)C(=O)CCC(=O)Nc2cc(C)on2)cc1 (configuration not stated)
- AC50: > 42 µM (inactive)

SMILES: NS(=O)(=O)c1cccc(NC(=O)c2cccnc2Oc2ccccc2)c1
- AC50: > 42 µM (inactive)

SMILES: NC(=O)CC(NC(=O)Cc1cccc2ccccc12)c1ccc(NCCCN2CCCC2=O)c([N+](=O)[O-])c1 (configuration not stated)
- AC50: > 42 µM (inactive)

SMILES: C/C=C\C=C/C(=O)Nc1cccc(C2=NOC3(C2)C[C@@H](C(N)=O)N(C(=O)c2ccccc2)C3)c1 (some centres not stated)
- AC50: > 42 µM (inactive)

SMILES: CCS(=O)(=O)N1CCC(C(=O)N2CCc3ccccc3C2)CC1
- AC50: > 42 µM (inactive)

SMILES: Cc1cc(C)cc(C(=O)N2CCC3(CC2)NCCc2[nH]cnc23)c1
- AC50: > 42 µM (inactive)

SMILES: Cc1nc2sc(C(c3ccccc3)N3CCC(O)CC3)c(O)n2n1 (configuration not stated)
- AC50: > 42 µM (inactive)

SMILES: CCCCC(=O)Nc1cc(OC)c(NC(=O)C2CCCCC2)cc1OC
- AC50: > 42 µM (inactive)

SMILES: Cc1cc(F)ccc1S(=O)(=O)Nc1ccccc1C(=O)Nc1ccc2[nH]c(=O)[nH]c2c1
- AC50: > 42 µM (inactive)

SMILES: COc1cccc(OC)c1C(=O)N1CCN(Cc2ccccc2C)CC1
- AC50: > 42 µM (inactive)

SMILES: COc1ccc(C2C3=C(CC(C)(C)CC3=O)Nc3n[nH]c(C)c32)cc1 (configuration not stated)
- AC50: > 42 µM (inactive)

SMILES: Cc1cc(NC(=O)/C=C/c2ccco2)ccc1NC(=O)c1ccccc1
- AC50: > 42 µM (inactive)

SMILES: CC1(C)C=C(c2ccc(O)cc2)CC(C)(C)N1
- AC50: > 42 µM (inactive)

SMILES: NNC(=O)c1[nH]c2ccccc2c1-c1ccccc1
- AC50: > 42 µM (inactive)

SMILES: CCCCN(C)C(=O)CCC(=O)Nc1ccc2nc(N3CCN(C)CC3)cc(C)c2c1
- AC50: > 42 µM (inactive)

SMILES: COc1cccc(/C=N/NC(=O)CNC(=O)c2ccco2)c1O
- AC50: > 42 µM (inactive)

SMILES: Cc1c(Cl)c([N+](=O)[O-])nn1CC(=O)NC12CC3CC(CC(C3)C1)C2
- AC50: > 42 µM (inactive)

SMILES: O=C(N/C(=C/c1ccc2c(c1)OCO2)C(=O)N1CCOCC1)c1cccs1
- AC50: > 42 µM (inactive)

SMILES: COC(=O)C1=C(C)NC(C)=C([N+](=O)[O-])C1c1ccccc1C(F)(F)F (configuration not stated)
- AC50: > 42 µM (inactive)

SMILES: Cc1ccc(NC(=O)CSCC(=O)Nc2ccccc2N2CCCC2)cc1
- AC50: > 42 µM (inactive)

SMILES: COc1ccccc1C(=O)NCCNc1ccc([N+](=O)[O-])cc1Cl
- AC50: > 42 µM (inactive)

SMILES: Cc1ccc2cccc(OCc3nnc(SCC(=O)O)n3C)c2n1
- AC50: > 42 µM (inactive)

SMILES: C[C@]12CC[C@H]3C(=CCc4cc(O)ccc43)[C@@H]1CCC2=O
- AC50: > 42 µM (inactive)

SMILES: CCCN(CC1CC1)C(=O)COc1ccccc1C(=O)NCc1ccccc1
- AC50: > 42 µM (inactive)

SMILES: Cn1c(CN2CCOCC2)nnc1SCC(N)=O
- AC50: > 42 µM (inactive)

SMILES: Cc1ccc(/C=C/C(=O)OCC(=O)N(CC(C)C)c2c(N)n(Cc3ccccc3)c(=O)[nH]c2=O)o1
- AC50: > 21 µM (inactive)

SMILES: Cc1ccc(NS(=O)(=O)c2ccc(NC(=O)C3CCCO3)cc2)cc1 (configuration not stated)
- AC50: > 42 µM (inactive)

SMILES: O=C(NCc1ccccn1)C1Nc2ccc(C(F)(F)F)cc2C2C=CCC12 (configuration not stated)
- AC50: > 42 µM (inactive)

SMILES: COc1cc(/C=C2\NC(=S)N(C)C2=O)ccc1OCc1cccc(F)c1
- AC50: > 42 µM (inactive)

SMILES: CCOC(=O)C1CCCN(C(=O)/C=C/c2ccc(Cl)cc2)C1 (configuration not stated)
- AC50: > 42 µM (inactive)

SMILES: N#CC1=C(N)OC2=C(C(=O)CCC2)C1C1CC=CCC1 (configuration not stated)
- AC50: > 42 µM (inactive)

SMILES: CCN(C(=O)COC(=O)c1c(-c2ccccc2)noc1C)c1c(N)n(Cc2ccccc2)c(=O)[nH]c1=O
- AC50: > 42 µM (inactive)

SMILES: COc1ccc([N+](=O)[O-])c2c(=O)ccoc12
- AC50: > 42 µM (inactive)

SMILES: O=C(O)C1C2CCCCC2=C2CCCCC2C1C(=O)c1ccccc1 (configuration not stated)
- AC50: > 42 µM (inactive)

SMILES: COc1ccc2c(c1)[C@@]13CCC=C[C@H]1[C@@H](C2)NCC3
- AC50: > 42 µM (inactive)

SMILES: CN(C#N)c1nc(Cl)nc(Nc2cccc(Cl)c2)n1
- AC50: > 42 µM (inactive)

SMILES: COc1ccc(CN2C(=O)c3c(c(C)n(C)c3C)C2C(=O)NC2CCC(C)CC2)cc1 (configuration not stated)
- AC50: > 42 µM (inactive)

SMILES: CCCCn1c2nc3ccccc3nc2c2c(=O)n(CCC)cnc21
- AC50: > 42 µM (inactive)

SMILES: CCC(C)(C)NC(=O)C(c1ccc(C)cc1)N(CC1CCCO1)C(=O)CNC(=O)c1cccs1 (configuration not stated)
- AC50: > 42 µM (inactive)

SMILES: CC(C)(C)n1cnc2cc(NC(=O)c3ccc(Cl)cc3)ccc21
- AC50: > 42 µM (inactive)

SMILES: Cc1ccc(C(C(=O)Nc2ccc3c(c2)OCO3)N(C)C(=O)/C=C\c2ccc3c(c2)OCO3)cc1 (configuration not stated)
- AC50: > 42 µM (inactive)

SMILES: O=C(Oc1ccccc1N1C(=O)C2CC=CCC2C1=O)c1ccc(Br)cc1 (configuration not stated)
- AC50: > 42 µM (inactive)

SMILES: CC(C)(C)NC(=S)NCc1cccnc1
- AC50: > 42 µM (inactive)

SMILES: CC(=O)Nc1ccc(C(=O)NCCCOC(C)C)cc1
- AC50: > 42 µM (inactive)

SMILES: Cc1occc1-c1nnc(SCC(=O)N2CCN(c3ccccc3)CC2)n1C
- AC50: > 42 µM (inactive)

SMILES: O=S(=O)(NCC1CCCO1)c1cc(Cl)ccc1Br (configuration not stated)
- AC50: > 42 µM (inactive)

SMILES: COc1ccc(-c2nnc(-c3cc4c(ccc5ccccc54)oc3=O)o2)cc1
- AC50: > 42 µM (inactive)
